Values joined by “and” are separate entries in the source; they are usually repeats but may differ in a detail not shown here. Equal values may be shown once.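 Step 1: Grow cells in 96-well plates. Step 2: Expose to compound for 48 hours at 5 concentrations. Step 3: Interpolate endpoints linearly; if unreached, use highest concentration. Abbreviation: GI50, concentration required for 50% inhibition of growth. TGI is the concentration that stops growth completely.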
Tests used:
Assay in all cases: NCI anticancer screen, dose series, 48 h
HOP-62 NSCLC = system: HOP-62 NSCLC
PC-3 prostate = system: PC-3 prostate
UACC-62 melanoma = system: UACC-62 melanoma
SF-295 CNS = system: SF-295 CNS
SK-MEL-5 melanoma = system: SK-MEL-5 melanoma
TK-10 renal = system: TK-10 renal
RPMI-8226 leukemia = system: RPMI-8226 leukemia
CAKI-1 renal = system: CAKI-1 renal
HL-60(TB) leukemia = system: HL-60(TB) leukemia
CCRF-CEM leukemia = system: CCRF-CEM leukemia

Row | Compound | TGI (HOP-62 NSCLC) | TGI (PC-3 prostate) | TGI (UACC-62 melanoma) | TGI (SF-295 CNS) | TGI (SK-MEL-5 melanoma) | TGI (TK-10 renal) | TGI (RPMI-8226 leukemia) | TGI (CAKI-1 renal) | TGI (HL-60(TB) leukemia) | TGI (CCRF-CEM leukemia) | GI50 (UACC-62 melanoma) | GI50 (SF-295 CNS) | GI50 (HL-60(TB) leukemia)
1 | COc1ccc(-c2cc(-c3ccc(Nc4ccnc5cc(Cl)ccc45)cc3)[nH]c(=O)c2C#N)c2ccccc12 | > 53.9 µM | > 100 µM | 46.7 µM | > 50.1 µM | > 63.4 µM | 29.7 µM | 7.28 µM | 48.4 µM | 6.04 µM | > 100 µM |  |  | 
2 | CCCCCCCCCCCCCCCCCCNc1ccn(C2OC(COP(=O)(O)OCC3OC(n4cc(F)c(NCCCCCCCCCCCCCCCCCC)nc4=O)CC3O)C(O)C2O)c(=O)n1 (configuration not stated) | > 100 µM | > 100 µM | > 100 µM | > 100 µM | > 100 µM | > 100 µM | > 100 µM | > 100 µM | > 100 µM | > 100 µM |  |  | 
3 | COC(=O)[C@H]1CO[C@H]2C/C(C)=C/CC/C(C)=C/CC[C@@]3(C)O[C@@H]3C[C@H]21 | > 50 µM | > 50 µM | 18.2 µM | > 50 µM | 15.5 µM | > 50 µM | > 50 µM | > 50 µM | 26.2 µM | 28.1 µM |  |  | 
4 | CCCC(=O)NC(Nc1ccc(S(=O)(=O)Nc2nc(C)cc(C)n2)cc1)(C(F)(F)F)C(F)(F)F | > 100 µM | > 100 µM | > 100 µM | > 100 µM | > 100 µM | > 100 µM | > 100 µM | > 100 µM | > 100 µM | > 100 µM |  |  | 
5 | COc1cc(/C=C2\Sc3scc(-c4cccc([N+](=O)[O-])c4)[n+]3C2=O)cc(OC)c1OC | 36.1 µM | 86.3 µM | 24.2 µM | 39.5 µM | 17.8 µM | 22.6 µM | 22.7 µM | 17.8 µM | 82.1 µM | 90.6 µM |  |  | 
6 | COc1ccccc1NC(=O)CC(=O)N1N=C(C)C(N=Nc2ccc(C(=O)O)cc2)C1=O (configuration not stated) | > 100 µM | > 100 µM | > 100 µM | > 100 µM | > 100 µM | > 100 µM | > 100 µM | > 100 µM | > 100 µM | > 100 µM |  |  | 
7 | CCOP(=O)(OCC)C1CC(n2cc(C)c(=O)[nH]c2=O)OC1CO (configuration not stated) | > 100 µM | > 100 µM | > 100 µM | > 100 µM | > 100 µM | > 100 µM | > 100 µM | > 100 µM | > 100 µM | > 100 µM |  |  | 
8 | COC(=O)C(CSSC[C@H](N/C(C)=C/C(C)=O)C(=O)OC)N/C(C)=C/C(C)=O (some centres not stated) | > 100 µM | > 100 µM | > 100 µM | > 100 µM | > 100 µM | 39.1 µM | 63.5 µM | 55.4 µM | > 100 µM | 71.5 µM |  |  | 
9 | COC(=O)c1cc2ccc(OC(C)=O)c(OC(C)=O)c2cn1 | 42.7 µM | 50.9 µM | 5.8 µM and 35.1 µM |  | 30.3 µM | 34.9 µM | 4.91 µM | 35.9 µM | 8.21 µM and 3.8 µM | 5.57 µM | 16.3 µM | 42.1 µM | 1.63 µM
10 | CC(=O)c1c(C(F)(F)F)n([O-])c2cc(Cl)c(Cl)cc2[n+]1=O | 0.887 µM | 3.09 µM | 2.58 µM | 2.27 µM | 2.06 µM | 1.09 µM | 0.353 µM | 3.33 µM | 1.43 µM | 0.563 µM |  |  | 
11 | CC1(C)CC(=O)c2c(nc3ccc4ccccc4c3c2-c2ccc(NC(=O)CCCCCCCCC(=O)Nc3ccc(-c4c5c(nc6ccc7ccccc7c46)CC(C)(C)CC5=O)cc3)cc2)C1 | > 100 µM | > 100 µM | > 100 µM | > 100 µM | > 100 µM | > 100 µM | > 100 µM | > 100 µM | > 100 µM | > 100 µM |  |  | 
12 | CCOC(=O)c1cc2c(C(=O)c3ccc([N+](=O)[O-])cc3)c(C(C)=O)ccc2[nH]1 | 18.4 µM | > 100 µM | > 100 µM | > 100 µM | > 100 µM | > 100 µM | > 100 µM | > 100 µM | > 100 µM | > 100 µM |  |  | 
13 | O=c1oc2ccccc2cc1-c1cn2cc(Cl)ccc2n1 | 6.22 µM | 16.4 µM | 0.898 µM | 5.36 µM | 19.1 µM | 22.3 µM | 59.7 µM | 3.28 µM | > 61.7 µM | > 100 µM |  |  | 
14 | CCOC(=O)c1c(N2CCCC2)ncn(Cc2ccccc2)c1=S | > 100 µM | > 100 µM | > 100 µM | > 100 µM | > 100 µM | > 100 µM | > 100 µM | 88.3 µM | > 100 µM | > 100 µM |  |  | 
15 | COc1ccc(NC(C)=O)cc1N1C(=O)/C(=C\c2cc(OC)c(OC)c(OC)c2)SC1c1ccccc1 (configuration not stated) | > 100 µM | > 100 µM | > 100 µM | > 100 µM | > 100 µM | > 100 µM | > 100 µM | 60.2 µM | 41 µM | > 100 µM |  |  | 
16 | COc1ccc(-c2c(C#N)c(S)n(NS(=O)(=O)c3ccc(C)cc3)c(=O)c2C#N)cc1 | > 100 µM | 67.5 µM | 31.5 µM | > 100 µM | 30 µM | > 100 µM | 15.4 µM | > 100 µM | 33.2 µM | 26.8 µM |  |  | 
17 | Nc1ccccc1CC(O)C(=O)O (configuration not stated) | > 100 µM | > 100 µM | > 100 µM | > 100 µM | > 100 µM | > 100 µM | > 100 µM | > 100 µM | > 100 µM | > 100 µM |  |  | 
18 | OC(CCNCc1ccccc1)c1ccc2ccccc2c1 (configuration not stated) | 33.5 µM | 47.4 µM | 35.8 µM | 63.9 µM | 32.4 µM | 33.6 µM | 73.3 µM | 42.6 µM | 43.2 µM | > 100 µM |  |  | 
